The assay has as its system Wnt/β-catenin transcription. The assay can be described thus: TOPFlash Reporter Assay (Wnt-3A-stimulated HEK293 cells stably transfected with p8xTOPFlash). The format is cell-based. Particulars: for IC50: Homo sapiens, read-out: Inhibition Wnt/β-catenin transcription TopFlash IC50; for IC50 / Inhibition Wnt/β-catenin transcription TopFlash, % inhibition: HEK293 TOPFlash cells, Wnt-3A conditioned medium, 8 hour treatment. As to the method:
Wnt-3A conditioned medium was prepared using L WNT-3A cells (ATCC(CRL-2647™) purchased from ATCC. Conditioned medium was obtained following published protocols (http://www.atcc.org/Products/All/CRL-2647.aspx#culturemethod) (Chen, M. Y.; Wang, J. B.; Lu, J. Y.; Bond, M. C.; Ren, X. R.; Lyerly, H. K.; Barak, L. S.; Chen, W. Biochemistry 2009, 48, 10267). HEK293 cells were stably transfected with p8×TOPFlash, Renilla luciferase plasmid pRL-TK (Promega), and pLKO.1 as previously published (Chen, M. Y.; Wang, J. B.; Lu, J. Y.; Bond, M. C.; Ren, X. R.; Lyerly, H. K.; Barak, L. S.; Chen, W. Biochemistry 2009, 48, 10267). Stably transfected cells were seeded in 100 μl of cell growth medium/well in 96-well plates at 100% confluency. Fifty microliters of Wnt-3A conditioned medium containing the chemical compounds to be tested or DMSO was added to each well. After an 8 hour treatment, the cells were washed once with PBS and lysed with 55 μl of Passive Lysis Buffer supplied in the Dual-Luciferase Reporter Assay kit (Promega, Madison, Wis.). Twenty-five microliters of cell lysate was used for measuring luciferase activity in a 96-well plate reader (FluoStar Optima, BMG Labtech, Chicago, Ill.). Data were fit using GraphPad Prism (mean±SEM, n>=2).
Data is from a single experiment unless otherwise noted. Data that is an average of two experiments is noted as “n=2” while data that is an average of three or more experiments is presented as the average plus or minus the standard error of the mean.

Where only a bound is given, the exact number is not on record here.

With `O=C(Nc1ncc(C(F)(F)F)cc1Cl)c1cc(Cl)ccc1O` [Compound 4, 5-chloro-N-(3-chloro-5-(trifluoromethyl)pyridin-2-yl)-2-hydroxybenzamide], the IC50 came out at 17.4 µM.
Still for that read-out and setting: next, `O=C(Nc1ccc([N+](=O)[O-])cc1Cl)c1cc(Cl)ccc1O` [A, reference compound]: 0.49 µM.
On to `O=C(Nc1ccncc1Cl)c1cc(Cl)ccc1O` [Compound 1, 5-chloro-N-(3-chloropyridin-4-yl)-2-hydroxybenzamide], for which the “Inhibition Wnt/β-catenin transcription TopFlash, % inhibition” value (at 10 μM) worked out at 80% inhibition at 10 μM.
As to `O=C(Nc1ccc([N+](=O)[O-])cn1)c1cc(Cl)ccc1O` [Compound 2, 5-chloro-2-hydroxy-N-(5-nitropyridin-2-yl)benzamide], under “at 2 μM”, the “Inhibition Wnt/β-catenin transcription TopFlash, % inhibition” value was determined as 75% inhibition at 2 μM.
As to `O=C(Nc1ccc(C(F)(F)F)cn1)c1cc(Cl)ccc1O` [Compound 3, 5-chloro-2-hydroxy-N-(5-(trifluoromethyl)pyridin-2-yl)benzamide], the IC50 is 1.67 µM.
Still for that read-out and setting: the value for `CC(=O)Oc1ccccc1C(=O)Nc1ncc([N+](=O)[O-])s1` [C, reference compound] was 11.4 µM; that for `O=C(Nc1ncc([N+](=O)[O-])s1)c1cc(Cl)ccc1O` [Compound 5, 5-chloro-2-hydroxy-N-(5-nitrothiazol-2-yl)benzamide] was 8.8 µM; that for `O=C(Nc1ncc([N+](=O)[O-])s1)c1ccccc1O` [B, reference compound] was above 12 µM.
As for `CC(=O)Oc1ccccc1C(=O)Nc1ncc([N+](=O)[O-])s1` [nitazoxanide, reference compound], the “Inhibition of the Wnt/Frizzled signaling pathway (statement in words)” value was “inhibitor of the Wnt/Frizzled signaling pathway”.

Values taken from patent publication US20190070154A1, “NEW METHODS OF USE FOR AN ANTI-DIARRHEA AGENT” (Duke University, priority 2015, published 2019).
